Assay results reported in the OPERA property sets (Mansouri et al. 2018).

Compound | logP
C=CCN(N=O)C(=O)NCCCC(NC(C)=O)C(=O)NCc1ccccc1 (stereo not drawn) | 1.3
CCN(CCO)C(=O)COC(=O)Cc1ccc2cc(OC)ccc2c1 | 1.98
CC(=O)NC(CCCCNC(=O)N(C)N=O)C(=O)NCc1ccccc1 (stereo not drawn) | 1.18
Cc1ccnc(N)c1 | 0.56
CN(C)C(=O)Oc1cccc(F)c1 | 1.75
CCCN(CCCCC(NC(C)=O)C(=O)NCc1ccccc1)C(=O)NC (stereo not drawn) | 1.6
C=CCNC(=O)N(CCC)CCCCC(NC(C)=O)C(=O)NCc1ccccc1 (stereo not drawn) | 1.75
CCCNC(=O)COC(=O)Cc1ccc2cc(OC)ccc2c1 | 3.1
Cc1ccccc1S(=O)(=O)N1C(=O)NC(=O)C1(c1ccccc1)c1ccccc1 | 4
COC1N(C2CC(N=[N+]=[N-])C(CO)O2)C(=O)NC(=O)C1(C)I (stereo not drawn) | 1.03
COc1ccc2cc(CC(=O)OCC(=O)N3CCOCC3)ccc2c1 | 2.13
CC(C)=CCN1CC[C@@]2(C)c3cc(O)ccc3C[C@@H]1[C@@H]2C | 4.64
CC=CCOCN(C(=O)CCl)c1c(CC)cccc1CC | 3.51
COc1ccc(-c2nnc(NC(=O)c3c(OC)cccc3OC)s2)cc1 | 3.56
CCCN(CCCC(NC(C)=O)C(=O)NCc1ccccc1)C(=O)N(C)N=O (stereo not drawn) | 1.61
CCOc1ccc(NC(=O)OC(C)COC)cc1OCC (stereo not drawn) | 2.56
[O-][n+]1ccc(Cl)cc1 | -0.44
COc1ccc2c(c1)[n+]([O-])nc(N)[n+]2[O-] | 0
CCc1ccc(OC(=O)N(C)C)cc1 | 2.55
C#CCNC(=O)NCCCC(NC(C)=O)C(=O)NCc1ccccc1 (stereo not drawn) | -0.31
CNC(=O)NCCCC(NC(C)=O)C(=O)NCc1ccccc1 (stereo not drawn) | -0.33
[O-][n+]1nc2ccccc2c2ccccc21 | 2.24
CCSc1nnc(C(C)(C)C)c(=O)n1N | 2.08

Compound | logP
CCOc1cc[n+]([O-])cc1 | -0.53
O=[N+]([O-])C=C1CCCN1Cc1ccc(Cl)nc1 | 0.68
CCCOc1ccccc1NC(=O)OC1CCCCC1CN(C)C (stereo not drawn) | 4.44
CCNC(=O)COC(=O)Cc1ccc2cc(OC)ccc2c1 | 2.65
COc1ccc2cc(CC(=O)O)ccc2c1 | 2.82
C=CCNC(=O)N(CCC)CCCC(NC(C)=O)C(=O)NCc1ccccc1 (stereo not drawn) | 1.21
CC1(C)CC2=NOS3=C2C(=NO3)C1 | 1.9
CCCN(CCC)C(=O)COC(=O)Cc1ccc2cc(OC)ccc2c1 | 4.04
CC(=O)NC(CCCNC(=O)NCCCl)C(=O)NCc1ccccc1 (stereo not drawn) | 0.34
C#CCNC(=O)NCCCCC(NC(C)=O)C(=O)NCc1ccccc1 (stereo not drawn) | 0.23
CCOC(=O)Cc1ccc(-n2sc3ccccc3c2=O)cc1 | 3.33
CCCCCCCOc1ccccc1NC(=O)OC1CCCCC1CN(C)C (stereo not drawn) | 6.3
Clc1ccc(-c2ccc(Cl)c(Cl)c2)cc1 | 5.9
CCCN(CCCC(NC(C)=O)C(=O)NCc1ccccc1)C(=O)NC (stereo not drawn) | 1.47
Cc1cccc(O)c1C | 2.48
COc1ccc2cc(CC(=O)OCC(=O)N(CCO)CCO)ccc2c1 | 1.41
CC(=O)Oc1ccc(C(=O)O)cc1 | 1.48
CNC(=O)NCCCCC(NC(C)=O)C(=O)NCc1ccccc1 (stereo not drawn) | 0.06
C#CCOc1cc(NC=NOC)cc(Cl)c1OCC#C | 2.3
C#CCC(C)OC(=O)Nc1ccc(OCC)c(OCC)c1 (stereo not drawn) | 2.86
CC(C(N)=O)c1ccc(-n2sc3ccccc3c2=O)cc1 (stereo not drawn) | 2.07
CN(C)C(=O)Oc1cccc(Cl)c1 | 2.33
C=CCNC(=O)NCCCC(NC(C)=O)C(=O)NCc1ccccc1 (stereo not drawn) | 0.68

Compound | logP
COc1cccc(OC)c1C(=O)Nc1nnc(-c2ccc(Cl)cc2)s1 | 3.96
CN(C)C(=O)Oc1cccc(C#N)c1 | 1.23
CC(=O)Oc1cccc(C(=O)O)c1 | 1.49
C=CCN(N=O)C(=O)N(CCCCC(NC(C)=O)C(=O)Nc1ccccc1)Cc1ccccc1 (stereo not drawn) | 2.7
COc1cccc(OC)c1C(=O)Nc1nnc(-c2ccc(Br)cc2)s1 | 3.92
COC(=O)C(C)c1ccc(-n2sc3ccccc3c2=O)cc1 (stereo not drawn) | 3.46
CC(=O)c1cc[n+]([O-])cc1 | -0.93
CC(=O)Nc1n[n+]([O-])c2ccccc2[n+]1[O-] | -0.6
CC(=O)Nc1n[n+]([O-])c2cc(C)ccc2[n+]1[O-] | -0.4
CCOC(=O)CCCOc1ccc(-n2sc3ccccc3c2=O)cc1 | 3.96
CCOc1ccc(NC(=O)OCCBr)cc1OCC | 2.78
CCOc1ccc(NC(=O)OC(C)CF)cc1OCC (stereo not drawn) | 2.59
CCC(C(=O)OC)c1ccc(-n2sc3ccccc3c2=O)cc1 (stereo not drawn) | 3.91
CNC(=O)ON=C(CSC)C(C)(C)C | 2.75
CCOc1ccc(-c2nnc(NC(=O)c3c(OC)cccc3OC)s2)cc1 | 3.75
COc1ccc2cc(CC(=O)OCC(=O)NC(C)C)ccc2c1 | 2.89
C=CCNC(=O)NCCCCC(NC(C)=O)C(=O)NCc1ccccc1 (stereo not drawn) | 0.76
O=S1CC2=NOS3=C2C(=NO3)C1 | -0.3
C=CCC(C)OC(=O)Nc1ccc(OCC)c(OCC)c1 (stereo not drawn) | 3.37
CN(C)C(=O)Oc1ccc(C#N)cc1 | 1.21
Nc1ncn(C2CC(O)C(CO)O2)c(=O)n1 (stereo not drawn) | -1.89
C=CCN1CCN(CC=C)C1=S | 1.63
C#CCON=CNc1cc(Cl)c(OCC#C)c(OCC#C)c1 | 2.3

Compound | logP
CCOc1ccccc1NC(=O)OC1CCCCC1CN(C)C (stereo not drawn) | 4.14
O=C1NC(=O)C(c2ccccc2)(c2ccccc2)N1S(=O)(=O)c1ccc([N+](=O)[O-])cc1 | 4.04
CNC(=O)N(CCCCC(NC(C)=O)C(=O)NCc1ccccc1)Cc1ccccc1 (stereo not drawn) | 1.99
CN(C)C(=O)Oc1ccc(F)cc1 | 1.58
CCc1cccc(OC(=O)N(C)C)c1 | 2.47
CCC(=O)Oc1ccccc1C(=O)O | 1.67
O=C1NC(=O)C(c2ccccc2)(c2ccccc2)N1S(=O)(=O)c1ccccc1 | 4.04
C#CCOc1ccc(NC=NOCC)cc1OCC#C | 1.9
Cc1cc2c(cc1C)[n+]([O-])c(N)n[n+]2[O-] | 0.56
C=CCN(N=O)C(=O)N(CCC)CCCC(NC(C)=O)C(=O)NCc1ccccc1 (stereo not drawn) | 2.16
CCCc1ccc(CO)cc1 | 2.67
CC(C)(C)C(=O)OCn1cc(F)c(=O)[nH]c1=O | 0.66
COc1n[n+]([O-])c2ccccc2[n+]1[O-] | -0.3
Cc1cc2cc3c(C)cc(=O)oc3c(C)c2o1 | 3.14
C1SCC2=NOS3=C2C1=NO3 | 1.2
O=C1NC(Cc2c[nH]c3ccccc23)C(=O)NC1Cc1ccc(O)cc1 (stereo not drawn) | 1.05
COc1ccc2cc(CC(=O)OCC(N)=O)ccc2c1 | 1.88
OC1(Cn2cncn2)CCCC1Cc1ccccc1 (stereo not drawn) | 2.26
COC(=O)Cc1ccc(-n2sc3ccccc3c2=O)cc1 | 2.83
COc1ccc2cc(CC(=O)OCC(=O)NC3CCCCC3)ccc2c1 | 3.99
CCC(C)c1ccc(OC(=O)N(C)C)cc1 (stereo not drawn) | 3.62
CC(=O)CC(=O)Nc1n[n+]([O-])c2ccccc2[n+]1[O-] | -1.4
C#CCOc1cc(NC=NOC)cc(F)c1OCC#C | 1.8

Compound | logP
C#CCOc1cc(NC=NOCOC)cc(Cl)c1OCC#C | 2.2
CCOc1ccc(NC(=O)OC(C)CCl)cc1OCC (stereo not drawn) | 2.97
COC1N(C2CC(N=[N+]=[N-])C(CO)O2)C(=O)NC(=O)C1(C)Br (stereo not drawn) | 1.12
CCCCCCCCn1c(N)c(N)c(=O)[nH]c1=O | 2.05
CCCCCCn1c(N)c(N)c(=O)[nH]c1=O | 1.01
CCCCCOc1ccccc1NC(=O)OC1CCCCC1CN(C)C (stereo not drawn) | 5.46
CCCC(=O)Oc1ccccc1C(=O)O | 2.2
CNC(=O)N(CCCC(NC(C)=O)C(=O)NCc1ccccc1)Cc1ccccc1 (stereo not drawn) | 1.86
CC(C)c1ccc(OC(=O)N(C)C)cc1 | 3.04
CN(C)C(=O)Oc1ccc(Br)cc1 | 2.46
CCOc1ccc(NC(=O)OCCCl)cc1OCC | 2.62
COc1ccc2cc(CC(=O)OCC(=O)N(C(C)C)C(C)C)ccc2c1 | 3.89
COC(=O)c1ccc(-n2sc3ccccc3c2=O)cc1 | 3.49
Cc1cc[n+]([O-])cc1 | -0.88
CCc1ccc(CO)cc1 | 2.27
C#CCOc1cc(NC=NOCOC)cc(F)c1OCC#C | 1.7
CCN(CC)C(=O)COC(=O)Cc1ccc2cc(OC)ccc2c1 | 3.05
CC(=O)NC(CCCCN(Cc1ccccc1)C(=O)N(C)N=O)C(=O)NCc1ccccc1 (stereo not drawn) | 2.12
CN(C)C(=O)Oc1cccc([N+](=O)[O-])c1 | 1.56
C#CC(CC)OC(=O)Nc1ccc(OCC)c(OCC)c1 (stereo not drawn) | 3.07
COC1N(C2CC(N=[N+]=[N-])C(CO)O2)C(=O)NC(=O)C1(C)Cl (stereo not drawn) | 0.84
Cc1ccc2c(c1)[n+]([O-])nc(N)[n+]2[O-] | 0.2
C#CCOc1cc(NC=NOCC)cc(F)c1OCC#C | 2.1

Compound | logP
CCC(C(N)=O)c1ccc(-n2sc3ccccc3c2=O)cc1 (stereo not drawn) | 2.58
C=CC(CC)OC(=O)Nc1ccc(OCC)c(OCC)c1 (stereo not drawn) | 3.42
CCOC(=O)CCOc1ccc(-n2sc3ccccc3c2=O)cc1 | 3.59
Cc1ccc(CC2CCCC2(O)Cn2cncn2)cc1 (stereo not drawn) | 2.71
CCOC(=O)C(C)c1ccc(-n2sc3ccccc3c2=O)cc1 (stereo not drawn) | 3.91
COc1ccccc1NC(=O)OC1CCCCC1CN(C)C (stereo not drawn) | 3.55
C=CCN(CC=C)C(=O)COC(=O)Cc1ccc2cc(OC)ccc2c1 | 3.67
CCCCc1ccc(CO)cc1 | 3
C#CCOc1cc(NC=NOCC=C)cc(Cl)c1OCC#C | 2.7
COCCNC(=O)Cn1ccnc1[N+](=O)[O-] | -0.77
CCOC(=O)C(CC)c1ccc(-n2sc3ccccc3c2=O)cc1 (stereo not drawn) | 4.11
Nc1n[n+]([O-])c2cc(OCC(O)CO)ccc2[n+]1[O-] (stereo not drawn) | -1.1
O=c1[nH]c2ccccc2n1C1CCNCC1 | 1.14
CC(C)(C)c1ccc(CC2CCCC2(O)Cn2cncn2)cc1 (stereo not drawn) | 3.97
N#CN=C1NCCN1Cc1ccc(Cl)nc1 | 0.77
NC(=O)Cc1ccc(-n2sc3ccccc3c2=O)cc1 | 1.72
CCCCNC(=O)COC(=O)Cc1ccc2cc(OC)ccc2c1 | 3.57
COc1cccc(OC)c1C(=O)Nc1nnc(-c2ccc(C)cc2)s1 | 3.85
CCOC(=O)NC1CCc2cc(OC)c(OC)c(OC)c2-c2ccc(OC)c(=O)cc21 (stereo not drawn) | 2.3
CCCCCCOc1ccccc1NC(=O)OC1CCCCC1CN(C)C (stereo not drawn) | 5.9
COC(=O)NC(=S)Nc1ccccc1N | 0.7
CCCN1CCN(CCC)C1=S | 1.86
C#CCCOC(=O)Nc1ccc(OCC)c(OCC)c1 | 2.54
